In patent publication US20230087388A1, “INHIBITORS OF HUMAN DEUBIQUITINASES FOR THE TREATMENT OF CORONAVIRAL INFECTIONS” (Immunologik GmbH, priority 2020, published 2023):
“Also recorded” adds a separate entry of the source.

Assays:
SARS-CoV-2 [1] = format: cell-based
[2] = target: T1, papain-like protease (PLpro) of SARS-CoV-2 (Severe acute respiratory syndrome coronavirus 2, UniProt P0DTD1); format: biochemical
T1 construct: They are the papain-like proteases (PLpro), encoded within nsp3; purchased R&D biosystems E-611-050

SARS-CoV-2 [3] = assay: qRT-PCR of viral RNA from SARS-CoV-2 infected Vero-B4 cells; format: cell-based; settings: 10 μM, 3 d treatment, 3 independent experiments; compared with 10 μM chloroquine or hydroxychloroquine
Protocol: Therefore, virus-containing samples were quantified by real-time PCR AgPath-ID One-Step RT-PCR Kit from Ambion (Cat: 4387424) allowing reverse transcription, cDNA synthesis and PCR amplification in a single step. Samples were analyzed by 7500 software v2.3 (applied Bioscience). PCR primers were used according to 44: RdRp_fwd: 5′-GTG-ARA-TGG-TCA-TGT-GTG-GCG-G-3′ and RdRp_rev 5′-CAR-ATG-TTA-AAS-ACA-CTA-TTA-GCA-TA-C-3′. Probe was 5′-CAG-GTG-GAA-/ZEN/CCT-CAT-CAG-GAG-ATG-C-3′ (Label: FAM/IBFQ Iowa Black FQ). As positive control a specific target for E and RdRp gen of SARS-CoV2 was used and made by Integrated DNA Technologies. Control: 5′-TAA-TAC-GAC-TCA-CTA-TAG-GGT-ATT-GAG-TGA-AAT-GGT-CAT-GTG-TGG-CGG-TTC-ACT-ATA-TGT-TAA-ACC-AGG-TGG-AAC-CTC-ATC-AGG-AGA-TGC-CAC-AAC-TGC-TTA-TGC-TAA-TAG-TGT-TTT-TAA-CAT-TTG-GAA-GAG- ACA-GGT-ACG-TTA-ATA-GTT-AAT-AGC-GTA-CTT-CTT-TTT-CTT-GCT-TTC-GTG-GTA-TTC-TTG-CTA-GTT-ACA-CTA-GCC-ATC-CTT-ACT-GCG-CTT-CGA-TTG-TGT-GCG-TAC-TGC-TGC-AAT-ATT-GTT-3′. The annealing temperature was 60° C. The experimental procedure containing the infection, treatment and isolation of virions was the same as described for the Western blot analysis. The evaluation of qRT-PCR analysis clearly confirmed the results of the Western blot experiments.

Vero-B4 cells = settings: WST assay, 3 days

| Compound | reduction in the release of SARS-CoV-2 proteins (densitometric analysis) (SARS-CoV-2 [1]; 1.25 μM P5091, 3 d treatment, 3 independent experiments, untreated = 100%) [%] | release of SARS-CoV-2 proteins / replication of SARS-CoV-2 (SARS-CoV-2 [1]; 5 μM P5091, infected Vero-B4 cells, 3 d treatment) | release of viral proteins in Western Blot (SARS-CoV-2 [1]; different concentrations of P5091, 3 d treatment) | inhibitory effect on SARS-CoV-2 PLpro activity ([2]; 20 nM recombinant PLpro, ISG15-AMC substrate, 30 min pretreatment, 120 min readout, PR-619 1.25-10 μM, P5091 1.5-6 μM) | reduction of activity of PLpro from SARS-CoV-2 (AUC) ([2]; 6 μM P5091, n=3) [%] | inhibition of replication of SARS-CoV-2 in infected Vero-B4 cells (SARS-CoV-2 [1]; 10 μM PR-619) | SARS-CoV-2 proteins in Western Blot, virus and cell fraction (SARS-CoV-2 [1]; 10 μM PR-619, infected Vero-B4 cells, 3 dpi) | generation of SARS-CoV-2 proteins, densitometric evaluation (nucleoprotein virus fraction, spike S1 cell fraction) (SARS-CoV-2 [1]; 10 μM, 3 d treatment, 3 independent experiments, compared with 10 μM chloroquine or hydroxychloroquine) | amount of viral RNA (qRT-PCR) (SARS-CoV-2 [3]) | concentration at which a clear toxic effect started (Vero-B4 cells) |
| --- | --- | --- | --- | --- | --- | --- | --- | --- | --- | --- |
| CC(=O)c1cc([N+](=O)[O-])c(Sc2cccc(Cl)c2Cl)s1 [P5091, 1-[5-[(2,3-dichlorophenyl)thio]-4-nitro-2-thienyl]-ethanone] | 90 | complete block; also recorded: nearly completely inhibit | dose-dependent decrease | dose dependent reduction; also recorded: direct inhibitory action | 80 | – | – | – | – | – |
| N#CSc1cc(SC#N)c(N)nc1N [PR-619, 2,6-diaminopyridine-3,5-bis(thiocyanate)] | – | – | – | – | – | broadly inhibit | clear reduction | significantly inhibited | significantly reduced | over 20 μM |
